Assay results from patent US20240018161A1, “MODULATORS OF CYSTIC FIBROSIS TRANSMEMBRANE CONDUCTANCE REGULATOR” (VERTEX PHARMACEUTICALS INCORPORATED, priority 2020, published 2024).
Read-outs that look alike come from different tables or passages of the source.

Biological target: CFTR-mediated chloride transport in human intestinal epithelial enteroid cells (Homo sapiens, UniProt P13569)
Experiment: Membrane potential dye, Enteroid Assay A
Assay type: cell-based
Details: for EC50: read-out: Ent. A EC50
Procedure, shortened: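 Membrane potential dye (20 μM methyl oxonol, with 30 μM CaCCinh-A01 and 30 μM Chicago Sky Blue) loaded 25 min at room temperature into ROCK-inhibitor-seeded human enteroid cells. Chloride-free stimulation buffer triggered transport, followed by 15 min fluorescence. % Activity relative to 3 μM/3 μM/300 nM triple-combination control.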

[1] = enteroid cells incubated with test compound 18-24 hours, acute 10 μM forskolin and 300 nM N-[2,4-bis(1,1-dimethylethyl)-5-hydroxyphenyl]-1,4-dihydro-4-oxoquinoline-3-carboxamide
[2] = percentage of chloride transport of triple combination control (3 μM N-[(6-amino-2-pyridyl)sulfonyl]-6-(3-fluoro-5-isobutoxy-phenyl)-2-[(4S)-2,2,4-trimethylpyrrolidin-1-yl]pyridine-3-carboxamide based)

Sequence of CFTR-mediated chloride transport in human intestinal epithelial enteroid cells (P13569 with tags, fused parts or gaps DEL508-508): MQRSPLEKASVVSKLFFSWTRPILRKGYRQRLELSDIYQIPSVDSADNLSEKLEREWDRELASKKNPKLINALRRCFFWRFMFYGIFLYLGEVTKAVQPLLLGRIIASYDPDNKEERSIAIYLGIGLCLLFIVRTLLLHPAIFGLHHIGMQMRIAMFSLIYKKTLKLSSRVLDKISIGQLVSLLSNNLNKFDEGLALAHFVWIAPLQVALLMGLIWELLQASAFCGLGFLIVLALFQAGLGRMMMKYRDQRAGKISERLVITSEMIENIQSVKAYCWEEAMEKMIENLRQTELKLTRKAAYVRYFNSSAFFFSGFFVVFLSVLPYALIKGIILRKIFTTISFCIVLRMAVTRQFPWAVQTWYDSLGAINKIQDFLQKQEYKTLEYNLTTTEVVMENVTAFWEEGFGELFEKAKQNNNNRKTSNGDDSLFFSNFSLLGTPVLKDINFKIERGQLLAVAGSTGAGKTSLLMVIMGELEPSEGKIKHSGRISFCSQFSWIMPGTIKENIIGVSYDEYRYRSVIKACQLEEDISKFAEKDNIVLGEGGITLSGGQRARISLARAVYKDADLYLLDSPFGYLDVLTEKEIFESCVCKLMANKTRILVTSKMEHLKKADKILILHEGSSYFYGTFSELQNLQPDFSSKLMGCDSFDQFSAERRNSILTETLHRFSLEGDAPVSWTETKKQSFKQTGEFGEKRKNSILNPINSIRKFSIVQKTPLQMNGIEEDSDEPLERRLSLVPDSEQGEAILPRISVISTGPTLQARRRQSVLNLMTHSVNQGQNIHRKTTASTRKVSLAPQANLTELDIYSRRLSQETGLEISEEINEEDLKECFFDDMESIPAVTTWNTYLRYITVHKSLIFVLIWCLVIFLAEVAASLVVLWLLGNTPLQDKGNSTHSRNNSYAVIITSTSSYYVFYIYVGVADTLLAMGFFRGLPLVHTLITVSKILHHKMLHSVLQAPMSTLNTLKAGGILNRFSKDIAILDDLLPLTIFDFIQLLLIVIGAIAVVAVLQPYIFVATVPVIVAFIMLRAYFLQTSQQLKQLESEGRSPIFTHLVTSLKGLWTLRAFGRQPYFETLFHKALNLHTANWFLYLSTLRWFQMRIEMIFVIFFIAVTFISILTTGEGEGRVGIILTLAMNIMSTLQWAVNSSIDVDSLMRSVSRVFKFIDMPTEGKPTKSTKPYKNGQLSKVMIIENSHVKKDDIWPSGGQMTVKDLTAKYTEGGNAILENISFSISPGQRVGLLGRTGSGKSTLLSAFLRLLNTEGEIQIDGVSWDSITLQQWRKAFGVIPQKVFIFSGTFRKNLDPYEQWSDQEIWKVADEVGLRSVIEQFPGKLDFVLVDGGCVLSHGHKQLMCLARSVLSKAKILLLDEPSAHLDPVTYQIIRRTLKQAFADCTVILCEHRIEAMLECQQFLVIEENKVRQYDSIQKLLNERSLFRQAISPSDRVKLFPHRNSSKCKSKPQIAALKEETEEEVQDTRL

| SMILES | Ent. A Max Activity (%) (Enteroid Assay A) | EC50 (Enteroid Assay A) [µM] | EC50 [1] [µM] | Ent. A Max Activity (%) [2] |
| --- | --- | --- | --- | --- |
| Cc1cccc(C)c1-c1cc2nc(n1)NS(=O)(=O)c1cccc(c1)C(=O)N1CCN(C3CCC(F)CC3)C[C@H](C1)O2 (stereo partly drawn) [Compound 40, (16R)-12-(2,6-Dimethylphenyl)-18-(4-fluorocyclohexyl)-15-oxa-8λ^6-thia-1,9,11,18,22-pentaazatetracyclo[14.4.1.13,7.110,14]tricosa-3(23),4,6,10,12,14(22)-hexaene-2,8,8-trione] | +++ (+++ is >600%) | < 1 | – | – |
| Cc1cccc(C)c1-c1cc2nc(n1)NS(=O)(=O)c1cccc(c1)C(=O)N1CCCC(C1)O2 (stereo not drawn) [Compound 326] | – | – | 3 to 30 | + (+ is <300%) |
| Cc1cccc(C)c1-c1cc2nc(n1)NS(=O)(=O)c1cccc(c1)C(=O)N1CCN(CCC(C)C)C[C@@H]1CO2 [Compound 268] | – | – | 1 to 3 | +++ (+++ is >60%) |
| Cc1cccc(C)c1-c1cc2nc(n1)NS(=O)(=O)c1cccc(c1)C(=O)N1CCN(C(=O)CN(C)C)CC1CO2 (stereo not drawn) [Compound 305] | – | – | – | + (+ is <300%) |
| Cc1cccc(C)c1-c1cc2nc(n1)NS(=O)(=O)c1cc(n(C)c1)CC(=O)N1Cc3ccccc3C(C1)O2 (stereo not drawn) [Compound 348] | – | – | 1 to 3 | ++ (++ is 30-60%) |
| Cc1cccc(C)c1-c1cc2nc(n1)NS(=O)(=O)c1cccc(c1)C(=O)N1CCN(Cc3ccccc3)CC(C)(C1)O2 (stereo not drawn) [Compound 82, 18-Benzyl-12-(2,6-dimethylphenyl)-16-methyl-15-oxa-8λ^6-thia-1,9,11,18,22-pentaazatetracyclo[14.4.1.13,7.110,14]tricosa-3(23),4,6,10,12,14(22)-hexaene-2,8,8-trione] | +++ (+++ is >600%) | 1 to 3 | – | – |
| Cc1cccc(C)c1-c1cc2nc(n1)NS(=O)(=O)c1cccc(c1)C(=O)N1CCN(C3CCOCC3)C[C@H](C1)O2 [Compound 28] | +++ (+++ is >600%) | 3 to 30 | – | – |
| Cc1cccc(C)c1-c1cc2nc(n1)NS(=O)(=O)c1cccc(c1)C(=O)N1CC3CCCN(C)C3[C@H](C1)O2 (single isomer, unassigned) [Compound 199, 12-(2,6-dimethylphenyl)-18-methyl-15-oxa-8λ^6-thia-1,9,11,18,25-pentaazapentacyclo[14.7.1.13,7.110,14.017,22]hexacosa-3,5,7(26),10(25),11,13-hexaene-2,8,8-trione] | – | – | < 1 | +++ (+++ is >60%) |
| Cc1cccc(C)c1-c1cc2nc(n1)NS(=O)(=O)c1cccc(c1)C(=O)N1C[C@@H](CN(C3CCC(F)(F)CC3)[C@@H](CC(C)C)C1)O2 [Compound 110, (16R,19S)-18-(4,4-Difluorocyclohexyl)-12-(2,6-dimethylphenyl)-19-(2-methylpropyl)-15-oxa-8λ^6-thia-1,9,11,18,22-pentaazatetracyclo[14.4.1.13,7.110,14]tricosa-3(23),4,6,10(22),11,13-hexaene-2,8,8-trione] | +++ (+++ is >600%) | < 1 | – | – |
| Cc1cccc(C)c1-c1cc2nc(n1)NS(=O)(=O)c1cccc(c1)C(=O)N1CCN(C3CC4(CC4)C3)C[C@H](C1)O2 [Compound 23] | +++ (+++ is >600%) | < 1 | – | – |
| Cc1cccc(C)c1-c1cc2nc(n1)NS(=O)(=O)c1cccc(c1)C(=O)N1C[C@@H](CN(C3CC4(CCCC4)C3)C[C@@H]1CC(C)C)O2 [Compound 97, (16R,20S)-12-(2,6-Dimethylphenyl)-20-(2-methylpropyl)-18-{spiro[3.4]octan-2-yl}-15-oxa-8λ^6-thia-1,9,11,18,22-pentaazatetracyclo[14.4.1.13,7.110,14]tricosa-3(23),4,6,10(22),11,13-hexaene-2,8,8-trione] | ++ (++ is 30-60%) | < 1 | – | – |
| Cc1cccc(C)c1-c1cc2nc(n1)NS(=O)(=O)c1cccc(c1)C(=O)N1CCN(C3CCC(F)(F)CC3)C[C@H](C1)O2 [Compound 4, (16R)-18-(4,4-Difluorocyclohexyl)-12-(2,6-dimethylphenyl)-15-oxa-8λ^6-thia-1,9,11,18,22-pentaazatetracyclo[14.4.1.13,7.110,14]tricosa-3(23),4,6,10(22),11,13-hexaene-2,8,8-trione] | +++ (+++ is >600%) | < 1 | – | – |
| Cc1cccc(C)c1-c1cc2nc(n1)NS(=O)(=O)c1cccc(c1)C(=O)N1CCN(C)C[C@@H]1CO2 [Compound 162, (8R)-13-(2,6-Dimethylphenyl)-6-methyl-10-oxa-17λ^6-thia-3,6,14,16,23-pentaazatetracyclo[16.3.1.111,15.03,8]tricosa-1(21),11,13,15(23),18(22),19-hexaene-2,17,17-trione] | – | – | 3 to 30 | ++ (++ is 30-60%) |
| Cc1cccc(C)c1-c1cc2nc(n1)NS(=O)(=O)c1cccc(c1)C(=O)N1CCN(Cc3ccccc3)CC1CO2 (stereo not drawn) [Compound 169, 6-Benzyl-13-(2,6-dimethylphenyl)-10-oxa-17λ^6-thia-3,6,14,16,23-pentaazatetracyclo[16.3.1.111,15.03,8]tricosa-1(21),11,13,15(23),18(22),19-hexaene-2,17,17-trione] | – | – | < 1 | +++ (+++ is >60%) |
| Cc1cccc(C)c1-c1cc2nc(n1)NS(=O)(=O)c1cccc(c1)C(=O)N1CCN(Cc3ccccn3)CC(C1)O2 (stereo not drawn) [Compound 64, 12-(2,6-Dimethylphenyl)-18-[(pyridin-2-yl)methyl]-15-oxa-8λ^6-thia-1,9,11,18,22-pentaazatetracyclo[14.4.1.13,7.110,14]tricosa-3(23),4,6,10(22),11,13-hexaene-2,8,8-trione] | – | – | 1 to 3 | ++ (++ is 30-60%) |
| Cc1cccc(C)c1-c1cc2nc(n1)NS(=O)(=O)c1cccc(c1)C(=O)N1C[C@@H](CNC[C@@H]1CC(C)C)O2 [Compound 95, (16R,20S)-12-(2,6-Dimethylphenyl)-20-(2-methylpropyl)-15-oxa-8λ^6-thia-1,9,11,18,22-pentaazatetracyclo[14.4.1.13,7.110,14]tricosa-3(23),4,6,10(22),11,13-hexaene-2,8,8-trione] | ++ (++ is 30-60%) | < 1 | – | – |
| CC(C)Oc1cccc(-c2cc3nc(n2)NS(=O)(=O)c2cccc(c2)C(=O)N2Cc4ccccc4C(C2)O3)c1 (stereo not drawn) [Compound 338] | – | – | – | + (+ is <300%) |
| Cc1cccc(C)c1-c1cc2nc(n1)NS(=O)(=O)c1cccc(c1)C(=O)N1C[C@H]3C[C@@H]1[C@@H](C3)O2 [Compound 363] | – | – | 3 to 30 | +++ (+++ is >60%) |
| Cc1cccc(C)c1-c1cc2nc(n1)NS(=O)(=O)c1cccc(c1)C(=O)N1CCC(CCCO2)C1 (stereo not drawn) [Compound 355] | ++ (++ is 30-60%) | 3 to 30 | – | – |
| Cc1cccc(C)c1-c1cc2nc(n1)NS(=O)(=O)c1cccc(c1)C(=O)N1CCN(C(=O)NC(C)(C)C)C[C@@H]1CO2 [Compound 291] | – | – | – | +++ (+++ is >60%) |
| CCC(CC)N1CCN2C[C@@H](C1)Oc1cc(-c3c(C)cccc3C)nc(n1)NS(=O)(=O)c1cccc(c1)C2=O [Compound 11, (16R)-12-(2,6-Dimethylphenyl)-18-(1-ethylpropyl)-8,8-dioxo-15-oxa-8λ^6-thia-1,9,11,18,22-pentazatetracyclo[14.4.1.13,7.110,14]tricosa-3,5,7(23),10,12,14(22)-hexaen-2-one] | +++ (+++ is >600%) | < 1 | – | – |
